Measurements reported in publication PMC11484942, “Rumicidins are a family of mammalian host-defense peptides plugging the 70S ribosome exit tunnel” (Nature Communications, 2024).
Bridge positions count the residues as written; N and C are the ends. Square brackets hold non-standard residues; d marks the D form. Ends that are not written are not given here. Peptide text beside a SMILES is read from it. * marks the point of attachment. X1 = CC[C@H](C)CCCCC(=O)*; Dab = NCC[C@H](N)C(=O)O

Columns and labels:
[1] = tested on: E. coli BL21 (DE3) Star cell extract; assay: Cell-free protein synthesis (coupled transcription/translation) of EGFP; assay type: biochemical, Escherichia coli; conditions: minimum concentration that provides >90% inhibition of the EGFP synthesis in the CFPS system
Experimental: To investigate the effects of AMPs and antibiotics on the coupled transcription/translation process, the test compounds were added to a cell-free protein synthesis (CFPS) reaction mix with a plasmid encoding enhanced green fluorescent protein (EGFP) variant (F64L, S65T, Q80R, F99S, M153T, and V163A) under control of the T7 promoter. The cell lysate was prepared using the E. coli BL21 Star (DE3) overexpressed T7 RNA polymerase as described previously. The reaction mix consisted of the following components: 1.2 mM ATP, 0.8 mM UTP, 0.8 mM GTP, 0.8 mM CTP, 2 mM of each of 20 proteinogenic amino acids, 1.5 mM spermidine, 1 mM putrescine dihydrochloride, 0.06647 mM calcium folinate, […] tRNA from the E. coli MRE 600 strain, 0.33 mM NAD, 120 mM HEPES-KOH (pH 8.0), 10 mM ammonium glutamate, 175 mM potassium glutamate, 60 mM glucose, 15 mM magnesium glutamate, 2% PEG 8000, 25% E. coli BL21 Star (DE3) cell lysate, 1 ng/ml plasmid DNA. The reaction volume was 50 µL. The peptides were dissolved in PBS with the addition of 0.1% BSA. Erythromycin was used in the positive control reactions. The fluorescence of the sample without inhibitor was set as the 100% value. The reaction proceeded for 2 h in 96-well v-bottom black polystyrene microplates (Eppendorf #0030601904) in a plate shaker (30 °C, 1000 rpm). The fluorescence of the synthesized EGFP was measured with the microplate reader AF2200 (λEx = 488 nm, λEm = 510 nm; Eppendorf). The experimental data were obtained from at least two independent experiments performed in triplicate. Non-linear regression curves were generated using GraphPad Prism v.8.0.1 (GraphPad Software Inc.).

E. coli BW25113 = assay: MIC broth microdilution; assay type: cell-based, Escherichia coli
Experimental: (§1) The reduction of resazurin to resorufin was recorded.

E. coli ML-35p = assay: Cytoplasmic membrane permeability assay (ONPG); assay type: cell-based, Escherichia coli; conditions: 4 h exposure, 10 mM NaPB pH 7.4 + 0.9% NaCl, melittin = 100%, mean of two experiments
Experimental: To examine the ability of the peptides to affect the barrier function of outer and inner membranes of Gram-negative bacteria, we slightly modified the previously described procedure[22] with the use of the E. coli ML-35p strain constitutively expressing cytoplasmic β-galactosidase but lacking lactose permease, and also containing β-lactamase in the periplasmic space. The state of the E. coli ML-35p outer and cytoplasmic membranes was assessed based on their permeability to chromogenic markers nitrocefin (Calbiochem) and o-nitrophenyl-β-D-galactopyranoside (ONPG, AppliChem) which are the β-lactamase and β-galactosidase substrates, respectively. The cells were incubated in the trypticase soy broth (TSB) for 16 h at 37 °C, washed three times with phosphate-buffered saline (PBS, pH 7.4) to remove residual growth media, adjusted to the concentration of 2.5 × 10^8 CFU/mL, and stored on ice until used. Experiments were performed in 10 mM sodium phosphate buffer (NaPB, pH 7.4) with or without the addition of 0.9% NaCl and/or a mixture of divalent cations (0.5 mM CaCl2 and 0.5 mM MgSO4). The final concentration of E. coli ML-35p cells was of 2.5 × 10^7 CFU/mL. The concentrations of ONPG and nitrocefin were of 2.5 mM and 20 µM, respectively. Peptide samples were placed in the wells of a 96-well flat-bottom polystyrene microplate, and optical density of the solution enhanced due to an appearance of the hydrolyzed nitrocefin or ONPG and was measured at 492 and 405 nm, respectively, using a microplate reader AF2200. The final volume in each well was 200 µL. Assays were performed at 37 °C under stirring at 500 rpm. Control experiments were performed under the same conditions without adding a peptide. Two independent experiments were performed, and the curve pattern was the same.

[2] = tested on: ribosome on ermCL / RST1 mRNA; assay: Toe-printing (primer-extension inhibition) in PURExpress system; assay type: biochemical; conditions: 5 µM
Experimental: Toe-print analysis was performed as previously described[20] on two matrices: ErmCL and RST1. Briefly, the PURExpress system (NEB) was used for transcription and subsequent translation, then a reverse transcription reaction was performed. The ErmCL template was generated by PCR with two partially self-complementary oligonucleotides (Erm-F and Erm-R, Supplementary Table 8). […] oligonucleotide was used for reverse transcription. RST1 template was prepared as previously described[58] using PCR primers (T7fwd and NV1). Concentrations of tested compounds in toe-print were 0.5, 5, or 50 μM. 1% (v/v) DMSO water solution was used as a negative control sample. Two independent experiments were performed using both matrices, and the observed effects were the same.

E. coli 1057 WT = assay: microbe, parasite or virus in culture; assay type: cell-based, Escherichia coli; conditions: MHB + 0.9% NaCl
Experimental: (§3) Minimum inhibitory concentrations (MIC) were determined by broth microdilution assay based on Clinical and Laboratory Standards Institute (CLSI) guidelines using BSA in the growth medium to minimize AMP nonspecific adsorption[49]. Bacterial test cultures were grown in the Mueller-Hinton broth (MHB, Sigma) at 37 °C to mid-log phase and then diluted with the 2× MH medium supplemented with 1.8% NaCl (or without salt) so that to reach a final cell concentration of 10^6 CFU/mL. 50 µL of the obtained bacterial suspension were added to aliquots of 50 µL of the peptide solutions serially diluted with sterilized 0.1% bovine serum albumin (BSA) in 96-well flat-bottom polystyrene microplates (Eppendorf #0030730011). […] To verify MIC values, the respiratory activity of the bacteria was determined. Briefly, 5 µL of 0.5 mg/mL resazurin (Sigma) was added to the wells after 24 h (or after 48 h for M. smegmatis) of incubation, and the plate was incubated for additional 3 h. In some cases, MICs were determined in the Lysogeny Broth (LB) or Middlebrook 7H9 medium. The reduction of resazurin to resorufin was recorded. […] The results were expressed as the median values determined based on at least three independent experiments performed in triplicate.

[3] = tested on: E. coli 1057 R2 (rpoS^Q3stop, macB^N470D); conditions: MHB + 0.9% NaCl
Experimental: Minimum inhibitory concentrations (MIC) were determined by broth microdilution assay based on Clinical and Laboratory Standards Institute (CLSI) guidelines using BSA in the growth medium to minimize AMP nonspecific adsorption. Bacterial test cultures were grown in the Mueller-Hinton broth (MHB, Sigma) at 37 °C to mid-log phase and then diluted with the 2× MH medium supplemented with 1.8% NaCl (or without salt) so that to reach a final cell concentration of 10^6 CFU/mL. 50 µL of the obtained bacterial suspension were added to aliquots of 50 µL of the peptide solutions serially diluted with sterilized 0.1% bovine serum albumin (BSA) in 96-well flat-bottom polystyrene microplates (Eppendorf #0030730011). […] To verify MIC values, the respiratory activity of the bacteria was determined. Briefly, 5 µL of 0.5 mg/mL resazurin (Sigma) was added to the wells after 24 h (or after 48 h for M. smegmatis) of incubation, and the plate was incubated for additional 3 h. In some cases, MICs were determined in the Lysogeny Broth (LB) or Middlebrook 7H9 medium. The reduction of resazurin to resorufin was recorded. […] The results were expressed as the median values determined based on at least three independent experiments performed in triplicate.
(§2) Resistance induction experiments were performed using the previously described method. This approach allows for monitoring MIC values after each transfer. Briefly, on the first day, the overnight culture of the wild-type bacteria was diluted with the 2× MHB supplemented with 1.8% NaCl (or without salt) to reach a final cell concentration of 10^6 CFU/mL. 50 µL of the obtained bacterial suspension were added to aliquots of 50 µL of the peptide solutions serially diluted with the sterilized 0.1% BSA in 96-well flat-bottom polystyrene microplates. After incubation for 20 ± 2 h at 37 °C and 950 rpm, MICs were determined as described above. For each subsequent daily transfer, 2–4 μL of the inoculum taken from the first well containing a sub-inhibitory drug concentration was diluted with 2 mL of the fresh 2× MHB supplemented with 1.8% NaCl (or without salt). […] Multiple repeated passages in the presence of antimicrobial agents were performed for each bacterial strain during the experiment. Bacteria that grew at the highest concentrations of AMPs on the final day were passaged further 3 times on drug-free agar plates before determining the final MIC value.

E. coli 1057 = assay: Serial passage resistance induction; assay type: cell-based, Escherichia coli; conditions: serial passages, both media (MHB ±0.9%NaCl)
Experimental: as §2, with “Briefly, on the first day, the overnight culture of the wild-type bacteria was diluted with the 2× MHB supplemented with 1.8% NaCl (or without salt) to reach a final cell concentration of 10^6 CFU/mL. 50 µL of the obtained bacterial suspension were added to aliquots of 50 µL of the peptide solutions serially diluted with the sterilized 0.1% BSA in 96-well flat-bottom polystyrene microplates.” left out

[4] = tested on: Mycobacterium smegmatis mc(2)155; assay type: cell-based; conditions: Mycobacterium mc(2)155, 24 h
Experimental: as §1

S. aureus ATCC 29213 = assay type: cell-based, Staphylococcus aureus; conditions: ATCC 29213, 24 h
Experimental: as §1

panel of tested strains = conditions: over all tested strains of Fig. 6a
Experimental: as §3

mycobacteria = conditions: cited from earlier work
Excerpt: To estimate the therapeutic potential of rumicidins as candidate compounds for combating bacterial infections, we assessed their antimicrobial activity against a wide panel of strains. As expected, antibacterial activities of rumicidins, like those of known PrAMPs, decreased in most cases in the presence of salt, which might inhibit the adsorption of the peptides to the bacterial surface. Besides, their activities against Gram-negative bacteria deficient in SbmA protein (Pseudomonas aeruginosa and Proteus mirabilis) were also less pronounced. Amon ...

In the case of KPRPPHRPRPRPRPWFPPRFP [Rum-1[9-29]], the Protein synthesis inhibition [1] was 4 µM, the “Minimum inhibitory concentration MHB + 0.9% NaCl” value (E. coli BW25113; Mueller-Hinton broth + 0.9% NaCl, 24 h 37 °C, median of ≥3 experiments) was 32 µM and the “Minimum inhibitory concentration MHB” value (E. coli BW25113; Mueller-Hinton broth without salt, 24 h 37 °C, median of ≥3 experiments) was 8 µM. The “fold change of MIC vs wild-type rumicidin-1” value (E. coli BW25113; N-terminal shortening) was at least 4 fold, the “permeabilized cells (ONPG hydrolysis, % of melittin)” value (E. coli ML-35p; 4 µM) was 0.080% and the “permeabilized cells (ONPG hydrolysis, % of melittin)” value (E. coli ML-35p; 16 µM) was 1.213%. The “permeabilized cells (ONPG hydrolysis, % of melittin)” value (E. coli ML-35p; 64 µM) was 3.493% and the toe-print result [2] was “strong AUG toe-print signal comparable to that of the wild-type peptide”.

In the case of `CC[C@H](C)CCCCC(=O)N[C@@H](CCN)C(=O)N[C@H](C(=O)N[C@@H](CCN)C(=O)N[C@H]1CCNC(=O)[C@H]([C@@H](C)O)NC(=O)[C@H](CCN)NC(=O)[C@H](CCN)NC(=O)[C@H](CC(C)C)NC(=O)[C@@H](Cc2ccccc2)NC(=O)[C@H](CCN)NC1=O)[C@@H](C)O` [Polymyxin B] (X1-[Dab]T[Dab][Dab][Dab][dF]L[Dab][Dab]T; lactam 4-C (inferred); N-terminus assumed), the MIC (E. coli 1057 WT) was 0.062 µM, the MIC [3] was 4 µM and the “fold increase in MIC values under selection” value (E. coli 1057) was 128 fold.

For “RIKIPRPPKPRRPHRPRPGRRRPWFPPRFP [Rumicidin-3]”, the MIC [3] was 4 µM, the “Minimum inhibitory concentration (MIC)” value [4] was 4 µM and the “MIC S. aureus ATCC 29213” value (S. aureus ATCC 29213) was over 32 µM. The “median MIC” value (panel of tested strains) was “about 2 µM”.

In the case of PR-39, the MIC (mycobacteria) is listed as ~ 10 µM.
